Assay results from patent US11793208B2, “Antimicrobial treatment of animal carcasses and food products” (EVONIK OPERATIONS GMBH, priority 2017, dated 2023).

Assays:
[1] = pH of tap water containing acids and alkaline modifiers, before and after contact with chicken breast; assay type: physicochemical; conditions: for pH after 1 hour: 1 hour at 4° C. with chicken breast; for pH initial: tap water 4° C., before addition of poultry
Description: Organic acids were added to plastic containers containing 5.0 L of tap water at 4° C. The alkaline modifiers, NaOH, Na2CO3, Na2CO3.1.5H2O2, Na3PO4, were added to the solution in the plastic container in an amount sufficient to bring pH to about 7-9 depending upon the pKa of the organic acid. Then, 5 pieces of chicken breast weighing about 200 gram each were added to each container. The solution was then incubated for one hour at 4° C., with periodic stirring. The pH was measured immediately before the addition of the poultry and then after the 1 hour incubation at 4° C.

[2] = system: Salmonella enterica ATCC 14028; test: Salmonella suspension testing method; assay type: cell-based; conditions: for Average Log10 reduction: 60 min treatment, 5% organic load; for kill of Salmonella: organic acid with addition of percarbonate, relatively high pH
Description: The effect of organic acids and alkaline modifiers on microbial viability was assayed using a Salmonella suspension testing method as described below. […] A 1:5 dilution of organism was prepared in Butterfield's buffer. This dilution was added in equal parts to sterile fetal bovine serum in order to produce a working inoculum containing a 50% organic load. […] Then, a 1 mL aliquot of working inoculum was added to the test solution and vortexed briefly to mix. A 1 mL aliquot was removed from the mixture at 1, 30, and 60 minutes following inoculation, and immediately added to a 9 mL volume of Letheen neutralizing broth. This broth was then vortex mixed, diluted serially into Butterfield's buffer, and the dilutions plated on 3[…] Aerobic Count Plates. The plates were incubated for 24-48 hours at 35° C., and then counted manually. Log 10 calculations were performed to obtain the Log 10 CFU/mL of the solutions at each time point.

[3] = Concentration of PAA and H2O2 in the presence of alkaline modifiers; assay type: physicochemical; conditions: for effect of alkaline modifier on concentration of both PAA and hydrogen peroxide: PAA solution with the alkaline modifier, 1 hour at 4° C.; for PAA, ppm Initial / H2O2, ppm Initial: immediately after preparation; for H2O2, ppm in 1 hour / PAA, ppm in 1 hour: after 1 hour at 4° C.
[4] = system: Aerobic Plate Count (APC); test: Microbial reduction after PAA treatment of lamb livers: Aerobic Plate Count; assay type: cell-based; conditions: PAA 100 ppm
[5] = system: Escherichia coli Coliform (ECC); test: Microbial reduction after PAA treatment of chicken livers: Escherichia coli Coliform plates; assay type: cell-based; conditions: PAA 1000 ppm
Description: (§1) Six chicken livers were added to 500 mL of peracetic acid solution, and incubated room temperature for 5, 15, or 30 seconds. Then the livers were removed and quickly added individually to 100 mL Buffered Peptone Water in a sterile cup, 1 liver per cup. Cups were manually shaken for 30 seconds and the liquid was sampled for plating. Sample rinses were serially diluted using Butterfield's buffer and plated on Aerobic Plate Count (APC) and Escherichia coli Coliform (ECC) plates. The plates were incubated for 24-48 hours at a temperature of 35° C., and then counted manually. Log10 calculations were performed to obtain the Log10 CFU/mL of the solutions at each time point.

[6] = system: Aerobic Plate Count (APC); test: Microbial reduction after PAA treatment of chicken livers: Aerobic Plate Count; assay type: cell-based; conditions: PAA 1000 ppm
Description: as §1

[7] = system: Aerobic Plate Count (APC); test: Microbial load of rinses from treated poultry offal: Aerobic Plate Count; assay type: cell-based; conditions: 8-10 seconds
Description: (§2) For offal treatments, mixtures of organic acids and peroxyacids were prepared by weighing the components and dissolving them in water to reach the desired concentration. Peracetic acid (PAA) solutions were prepared by diluting VigorOx® (PeroxyChem LLC) with tap water to obtain the target concentration.
(§3) The pH of the aseptic compositions was adjusted using a 25% aqueous solution of NaOH, solid sodium carbonate, or sodium bicarbonate. The amount of active oxygen was confirmed by titration on an autotitrator and by using Chemetrics test kits K-7913F and K-5543.
(§4) Fresh poultry livers and gizzards, and lamb livers and kidneys were purchased untreated and fresh (not frozen) from local suppliers. All offal was kept refrigerated before testing.
(§5) Poultry offal was collected into a single large plastic bag. A gloved hand was used to remove either 6 whole, bi-lobed livers or 12 gizzards and place them in 350 mL of either water, an 840 ppm PAA solution, or an 840 ppm PAA solution that had been adjusted to a pH of 10.2 with sodium hydroxide and used within 5 minutes of pH adjustment. The samples were incubated in the solutions for 8-10 seconds. After treatment, a freshly gloved hand was used to remove 2 livers (or 4 gizzards) into a small plastic strainer. The treated samples were allowed to drain for 30 to 60 seconds to remove excess moisture. Each set of 2 livers (or 4 gizzards) was then placed into 100 mL peptone buffer and rinsed in the peptone for 30 seconds. A few milliliters of rinsate were removed by transfer pipette and kept on ice for dilution and plating. The plates were incubated for 24 to 48 hours at 35° C. and counted manually to determine the Aerobic Plate Count (APC) and the Enterobacteriaceae count (EBC). The color of the treated samples was noted by visual inspection.

Enterobacteriaceae = test: Microbial load of rinses from treated poultry offal: Enterobacteriaceae count; assay type: cell-based; conditions: 8-10 seconds
Description: as §2, §3, §4, §5

[8] = Citric 2,500 ppm, alkaline modifier Na2CO3•1.5H2O2
[9] = Citric 5,000 ppm, alkaline modifier Na2CO3•1.5H2O2
[10] = Glycolic 250 ppm, alkaline modifier Na2CO3
[11] = Glycolic 250 ppm, alkaline modifier NaOH
[12] = Glycolic 500 ppm, no alkaline modifier
[13] = additive Na5P3O10 125 ppm, initial PAA 10.4 ppm
[14] = additive Na5P3O10 125 ppm, initial PAA 30.1 ppm
[15] = alkaline modifier Na2CO3, pH 8.5, treatment time 5 seconds
[16] = alkaline modifier NaHCO3, pH 7.5, treatment time 15 seconds
[17] = alkaline modifier NaHCO3, pH 7.5, treatment time 30 seconds
[18] = alkaline modifier NaOH, pH 7.5, treatment time 5 seconds
[19] = no alkaline modifier, pH 3.1, treatment time 5 seconds
[20] = no alkaline modifier, pH 3.1, treatment time 15 seconds
[21] = Gizzards, 840 ppm PAA adjusted to pH 10.2 with sodium hydroxide
[22] = Livers, 840 ppm PAA adjusted to pH 10.2 with sodium hydroxide

SMILES: O=C(O)CC(O)(CC(=O)O)C(=O)O [Citric, citric acid]
- pH after 1 hour [1, 8]: 7.5
- pH initial [1, 8]: 7.5
- pH after 1 hour [1, 9]: 8.5
- pH initial [1, 9]: 8.5
- Average Log10 reduction ([2]; Citric 0.5%, alkaline modifier Na2CO3•1.5H2O2, pH 7.5): 7.09
- Average Log10 reduction ([2]; Citric 0.5%, no alkaline modifier, pH 2.4): 3.83
- kill of Salmonella [2]: virtually complete kill

SMILES: O=C(O)CO [Glycolic, glycolic acid]
- pH after 1 hour [1, 10]: 6.8
- pH initial [1, 10]: 6.7
- pH after 1 hour [1, 11]: 7.5
- pH initial [1, 11]: 9.0
- pH after 1 hour [1, 12]: 4.5
- pH initial [1, 12]: 3.6

SMILES: O=P(O)(O)OP(=O)(O)OP(=O)(O)O [Na5P3O10, sodium tripolyphosphate, reference compound]
- effect of alkaline modifier on concentration of both PAA and hydrogen peroxide [3]: relatively rapid decrease
- PAA, ppm Initial ([3]; additive Na5P3O10 125 ppm, higher PAA level): 30.1 ppm
- H2O2, ppm in 1 hour [3, 13]: 1.4 ppm
- PAA, ppm in 1 hour [3, 13]: 4.0 ppm
- H2O2, ppm Initial [3, 13]: 6.5 ppm
- H2O2, ppm in 1 hour [3, 14]: 4.8 ppm
- PAA, ppm in 1 hour [3, 14]: 8.6 ppm
- H2O2, ppm Initial [3, 14]: 20.1 ppm
- PAA, ppm Initial ([3]; additive Na5P3O10 125 ppm, lower PAA level): 10.4 ppm

SMILES: O=C([O-])O.[Na+] [NaHCO3, sodium bicarbonate]
- effect of alkaline modifier on concentration of both PAA and hydrogen peroxide [3]: remained relatively stable
- H2O2, ppm in 1 hour ([3]; additive NaHCO3 125 ppm): 6.3 ppm
- PAA, ppm in 1 hour ([3]; additive NaHCO3 125 ppm): 8.5 ppm
- H2O2, ppm Initial ([3]; additive NaHCO3 125 ppm): 6.5 ppm
- PAA, ppm Initial ([3]; additive NaHCO3 125 ppm): 10.4 ppm
- H2O2, ppm in 1 hour ([3]; additive NaHCO3 250 ppm): 18.9 ppm
- PAA, ppm in 1 hour ([3]; additive NaHCO3 250 ppm): 29.6 ppm
- H2O2, ppm Initial ([3]; additive NaHCO3 250 ppm): 19.9 ppm
- PAA, ppm Initial ([3]; additive NaHCO3 250 ppm): 30.3 ppm
- H2O2, ppm in 1 hour ([3]; additive NaHCO3 275 ppm): 11 ppm
- PAA, ppm in 1 hour ([3]; additive NaHCO3 275 ppm): 23 ppm
- H2O2, ppm Initial ([3]; additive NaHCO3 275 ppm): 11 ppm
- PAA, ppm Initial ([3]; additive NaHCO3 275 ppm): 25 ppm

SMILES: [Na+].[OH-] [NaOH, sodium hydroxide, reference compound]
- effect of alkaline modifier on concentration of both PAA and hydrogen peroxide [3]: relatively rapid decrease
- H2O2, ppm in 1 hour ([3]; additive NaOH 100 ppm): 4 ppm
- PAA, ppm in 1 hour ([3]; additive NaOH 100 ppm): 8 ppm
- H2O2, ppm Initial ([3]; additive NaOH 100 ppm): 11 ppm
- PAA, ppm Initial ([3]; additive NaOH 100 ppm): 25 ppm

SMILES: CC(=O)OO [PAA, Peracetic acid]
- APC log10 reduction ([4]; additive Citric acid, 2%, pH 7.5 (sodium carbonate), treatment time 10 minutes): 1.8
- APC log10 reduction ([4]; additive Lactic acid, 2%, pH 7.5 (sodium carbonate), treatment time 10 minutes): 1.8
- APC log10 reduction ([4]; no additive, pH 4.1, treatment time 10 minutes): 2.2
- APC log10 reduction ([4]; no additive, pH 7.5 (adjusted with sodium carbonate), treatment time 10 minutes): 3.0
- ECC log10 reduction [5, 15]: 1.1
- ECC log10 reduction [5, 16]: 3.1
- ECC log10 reduction [5, 17]: 3.1
- ECC log10 reduction [5, 18]: 0.8
- ECC log10 reduction [5, 19]: 0.5
- ECC log10 reduction [5, 20]: 1.1
- APC log10 reduction [6, 15]: 1.1
- APC log10 reduction [6, 16]: 1.1
- APC log10 reduction [6, 17]: 1.7
- APC log10 reduction [6, 18]: 1.1
- APC log10 reduction [6, 19]: 0.9
- APC log10 reduction [6, 20]: 1.2
- Log APC [7, 21]: 0.85
- Log APC ([7]; Gizzards, 840 ppm PAA, pH 3.4): 0.70
- Log APC [7, 22]: 0.30
- Log APC ([7]; Livers, 840 ppm PAA, pH 3.4): 0.00
- Log EBC (Enterobacteriaceae; [21]): 0.00
- Log EBC (Enterobacteriaceae; Gizzards, 840 ppm PAA, pH 3.4): 0.00
- Log EBC (Enterobacteriaceae; [22]): 0.00
- Log EBC (Enterobacteriaceae; Livers, 840 ppm PAA, pH 3.4): 0.00
- H2O2, ppm in 1 hour ([3]; no additive (0 ppm)): 11 ppm
- PAA, ppm in 1 hour ([3]; no additive (0 ppm)): 24 ppm
- H2O2, ppm Initial ([3]; no additive (0 ppm)): 11 ppm
- PAA, ppm Initial ([3]; no additive (0 ppm)): 25 ppm

SMILES: CCC(=O)O [Propionic, propionic acid]
- Average Log10 reduction ([2]; Propionic 0.5%, alkaline modifier Na2CO3•1.5H2O2, pH 7.5): 7.07
- Average Log10 reduction ([2]; Propionic 0.5%, no alkaline modifier, pH 3.1): 2.15
- kill of Salmonella [2]: virtually complete kill
